# Source: US7498303B2, “GNRH analogues for treatment of urinary incontinence” (priority 2000, dated 2009)
# Where “and” joins values, the source holds several entries; their conditions need not be identical. Equal entries are not always repeated. Structures can show the parent of a compound that is named as a salt.
# Experiments:
# [1] = system: excessive growth of the undercoat (baby coat) due to spaying; experiment: Excessive growth of the undercoat due to spaying in cocker spaniel bitches; assay type: in vivo, dog; settings: 5 mg slow release s.c. implant
# Protocol: Two cocker spaniel bitches belonging to the same owner were showing excessive growth of the undercoat due to spaying. […] Both dogs were first clinically examined and thereafter a GnRH analogue (Deslorelin) in a dosage of 5 mg, in slow release form, was subcutaneously implanted between the shoulder blades.
# [2] = system: urinary incontinence after spaying; experiment: GnRH analogue slow release implant in bitches with urinary incontinence after spaying; assay type: in vivo, dog; settings: slow release s.c. implant
# Protocol: Additionally, for a limited period the dogs were treated with phenylpropanolamine in a dosage of 1.5 mg/kg BW tid orally.
# After discontinuation of the shortacting phenylpropanolamine 8 bitches remained continent. Their continence was therefore achieved solely by the treatment with the composition as described in the present invention. Seven out of fifteen dogs seemed to be much happier and in none of the dogs did the general condition deteriorate. […] The respective results are shown in more detail in table 1.
# stress incontinence = experiment: Menopausal person with stress incontinence, 24 hour pad test; assay type: in vivo, human; settings: single dose of 3.75 mg, one person
# Protocol: A second menopausal person, suffering from stress incontinence for at least 6 years, was treated with a single dose of 3.75 mg of leuprolide acetate. 24 hour pad tests conducted prior to treatment with the drug indicated they lost between 10 and 130 ml of urine on a daily basis due to their incontinence.
# urinary incontinence = experiment: Double-blind, placebo-control study in client owned dogs suffering from urinary incontinence; assay type: in vivo, dog
# Protocol: In a second ongoing study, 16 client owned dogs suffering from urinary incontinence were enrolled in a double-blind, placebo-control study. In the initial phase of the study, dogs were randomly assigned to treatment with a long-acting GnRH analogue (leuprolide acetate) or placebo (dog owners and the investigators were blinded to treatment) along with a short course of therapy with phenylpropanolamine. 5 weeks after treatment with drug or placebo, dogs were evaluated and, if not fully continent, treated with a long-acting GnRH analogue (leuprolide acetate) in an open label phase of the study. To date only 1 of 10 dogs treated with placebo became continent vs. […] treated with drug during the blinded portion of the study. Overall, the results generated thus far indicate […] dogs treated with the long-acting GnRH analogue became continent and […] improved after discontinuation of the short acting phenylpropanolamine. Only 1 dog of 15 treated with the GnRH analogue was considered not to have improved following treatment with the drug.
# [3] = system: urinary incontinence of the bitch; settings: 1.5 mg/kg BW p.o., given every 8 hours; cited from earlier work
# [4] = system: urge incontinence and hotflushes; experiment: Perimenopausal person with urge incontinence and hot flushes; assay type: in vivo, human; settings: 3.75 mg; one perimenopausal person
# [5] = 11,25 mg, without PPA, one dog per line, listed as Leuprorelin acetate
# [6] = 6,3 mg, without PPA, one dog per line
# [7] = 6 mg, without PPA, one dog per line
# [8] = 12 mg, with PPA, one dog per line
# [9] = 12 mg, without PPA, one dog per line
compound,measurement,setting,value
CCNC(=O)[C@@H]1CCCN1C(=O)[C@H](CCCN=C(N)N)NC(=O)[C@H](CC(C)C)NC(=O)[C@@H](Cc1c[nH]c2ccccc12)NC(=O)[C@H](Cc1ccc(O)cc1)NC(=O)[C@H](CO)NC(=O)[C@H](Cc1c[nH]c2ccccc12)NC(=O)[C@H](Cc1cnc[nH]1)NC(=O)[C@@H]1CCC(=O)N1 [Deslorelin],Coat quality,"[1]; 5 weeks after the injection, both of two dogs",obvious amelioration of the coat quality
same,Signs of baby coat,"[1]; 21 weeks after injection, two dogs",no signes of “baby coat” were apparent anymore
"CCNC(=O)[C@@H]1CCCN1C(=O)[C@H](CCCNC(=N)N)NC(=O)[C@H](CC(C)C)NC(=O)[C@@H](CC(C)C)NC(=O)[C@H](Cc1ccc(O)cc1)NC(=O)[C@H](CO)NC(=O)[C@H](Cc1c[nH]c2ccccc12)NC(=O)[C@H](Cc1c[nH]cn1)NC(=O)[C@@H]1CCC(=O)N1 [Leuprorelinacetate, leuprolide acetate]",Duration of effect after treatment,"[2]; 11,25 mg, with PPA, one dog",>64 days
same,Effect on incontinence,"[2]; 11,25 mg, with PPA, one dog",100%
same,Duration of effect after treatment,"[2]; 11,25 mg, without PPA, one dog per line",0 days
same,Duration of effect after treatment,[2]; [5],>14 days
same,Effect on incontinence,[2]; [5],100%
same,"Daily urine loss, pad test","stress incontinence; 2 weeks after treatment, before treatment 10 to 130 ml daily",1 mL
same,Patient's judgement of the effects of the therapy,stress incontinence,very satisfied
same,Dogs that became continent during the blinded portion of the study,"urinary incontinence; long-acting, with short course of phenylpropanolamine, evaluated 5 weeks after treatment, placebo 1 of 10",3 to 8 dogs
same,Dogs considered not to have improved following treatment,urinary incontinence; of 15 treated,1 dog
same,Dogs that became continent after discontinuation of phenylpropanolamine (overall),"urinary incontinence; of 15 treated, blinded and open label phases, ongoing study",6 dogs
same,Remaining dogs that improved after discontinuation of phenylpropanolamine,"urinary incontinence; of 15 treated, ongoing study",9 dogs
CN[C@@H](C)[C@H](O)c1ccccc1 [ephedrinhydrochloride],Continence achieved,[3],74%
CC(N)C(O)c1ccccc1 (centres unmarked) [phenylpropanolamine],Continence achieved,[3],74%
Buserelin acetate [Buserelinacetate],Duration of effect after treatment,[2]; [6],44 days and 83 days
same,Effect on incontinence,[2]; [6],100%
Deslorelin acetate [Deslorelinacetate],Side effects,"[2]; 6 mg, one dog per line",More playfull
same,Duration of effect after treatment,"[2]; 6 mg, with PPA, one dog",>336 days
same,Effect on incontinence,"[2]; 6 mg, with PPA, one dog per line",100%
same,Duration of effect after treatment,[2]; [7],>47 days and >344 days and >340 days
same,Effect on incontinence,[2]; [7],100%
same,Duration of effect after treatment,[2]; [8],135 days and >318 days and >225 days
same,Effect on incontinence,[2]; [8],80% and 100% (2×)
same,Duration of effect after treatment,[2]; [9],64 days and >64 days and >209 days
same,Effect on incontinence,[2]; [9],100%
Triptorelin acetate [Triptorelinacetate],Duration of effect after treatment,"[2]; 3,75 mg, footnote: dose too low, one dog",0
same,Period of improvement of both symptoms,[4],about 4 weeks
same,"Urge incontinence and hotflushes, patient report",[4],improved considerably
